According to patent US6376688B1, “Modified polyunsaturated fatty acids” (Peptide Technology Limited, priority 1994, dated 2002):
Where two headings read alike, the source gives them in different places.

Tests used:
[1] = tested on: chloroquine sensitive P. falciparum; assay: Direct antimalarial activity of novel fatty acids (malaria growth inhibition, 3H-hypoxanthine); format: cell-based
Description: The plates were then incubated overnight. Individual well contents were collected onto glass filter paper and incorporated 3H measured in a liquid scintillation counter. Percent growth inhibition of the parasite was then calculated.

TNFα production = assay: PHA-induced TNFα production by mononuclear cells (ELISA); format: cell-based, human
Description: (§1) Mononuclear cells were separated from peripheral blood of normal human donors as described by Ferrante and Thong (1978. . . ). The mononuclear cells were resuspended in RPMI-1640 containing 20% human AB serum and placed into 96 well microtrays (50 μl per well, cell density […]). Fatty acid (66 μm) was then added in 50 μl and pre-incubated with the cells for 30 min at 37° C. in 5% CO2. Mitogen (PHA, ConA, PWM, Staph. aureus) was then added in 100 μl and the cells incubated for 66 hours at 37° C. in 5% CO2 before the addition of tritiated thymidine (1 μCi/well). After a total of 72 h in culture the cells were harvested and proliferation (thymidine incorporation) and supernatant's assayed for the presence of cytokines. Cytokine levels in culture supernatants were determined by specific ELISA using anti-cytokine antibodies. The following cytokine levels were determined TNFα, TNFβ, interferon-γ, IL-1β, IL-2.

P. falciparum = assay: Fatty acid stimulated neutrophil-mediated anti-malarial activity; format: cell-based; conditions: for inhibition relative to 22:6 (%) at 16 µM: Plasmodium falciparum
Description: To overcome fatty acid insolubility in aqueous solution mixed dipalmitoyl phophatidylcholine (DPC, 400 μg): fatty acid (100 μg) micells were prepared in HBSS by sonication. Neutrophils were pretreated for 30 min at 37° C. In some experiments PUFA were solubilized in ethanol. Aliquots of RBC (5×10^6 with […] parasitaemia) was mixed with neutrophils […] in the wells of a 96-well microtitre plate and than incubated for 2 hr at 37° C. in 5% CO2 in air before adding 1 μCi of 3H-hypoxanthine. The plates were then incubated overnight. Individual well contents were collected onto glass filter paper and incorporated 3H measured in a liquid scintillation counter. Percent growth inhibition of the parasite was then calculated.

[2] = tested on: human umbilical vein endothelial cells; assay: TNFα-induced expression of E-selectin (ELAM-1) by human umbilical vein endothelial cells; format: cell-based; conditions: FIG. 5
Description: Human umbilical cord endothelial cells (5×10^4.passage 1) were plated onto the centre 60 wells of 96 well microtrays, the remaining wells were filled with pyrongen-free distilled water to reduce evaporation in the wells containing cells. The cells were fed with fresh medium (M199 supplemented with 20% FCS and endothelial cell growth supplement) every second day until confluent. On the day preceding the assay the cells were washed with HBSS and re-fed. At the time of assay the medium was aspirated and fatty acides prepared in media were added to each well and incubated for various times as shown in FIGS. At 37-0-C in 5% CO2. After this incubation the cells were washed and treated with either TNF or PMA before being washed three times in PBS and fixed (100 μl, 0.025% glutaraldehyde in PBS, overnight at 4° C.). The wells were washed with PBS and either anti-ELAM (Becton-Dickinson, 100 μl, 1/1.000 in M199 containing 20% FCS) or anti-ICAM (Immunotech, 100 μl, […] in M199 containing 20% FCS) was added and incubated for 1 hour at room temperature after which the wells were washed with PBS ant 100 μl of rabbit anti-mouse Ig-HRP conjugate was added (1/1.000. Dako). A further incubation at room temperature for one hour followed before the plates were washed three time prior to the addition of 100 μl of the substrate (ABTS). Colour development was measured at 410 nm in a microplate reader.

[3] = tested on: cytokine production (TNFα, interferon, IL-2); assay: PHA-induced cytokine production by human peripheral blood mononuclear cells (FIG. 3, FIG. 4); format: cell-based; conditions: macrophage and T cell-derived cytokines
Description: as §1, with “cytokines.” for “cytokines. Cytokine levels in culture supernatants were determined by specific ELISA using anti-cytokine antibodies. The following cytokine levels were determined TNFα, TNFβ, interferon-γ, IL-1β, IL-2.”
Cytokine levels in culture supernatants were determined by specific ELISA using anti-cytokine antibodies. The following cytokine levels were determined TNFα, TNFβ, interferon-γ, IL-1β, IL-2.

[4] = neutrophil-mediated killing of P. falciparum, Table 2
[5] = Table 5, second printing (stands where Table 6 is expected)

| Compound | EC50 ([1]; Plasmodium falciparum) | EC50 [1] | % INHIBITION OF CYTOKINE PRODUCTION (PUFA AT 20 μM) (TNFα production; Table 5, first printing) | % INHIBITION OF CYTOKINE PRODUCTION (PUFA AT 20 μM) (TNFα production; [5]) | further results |
| --- | --- | --- | --- | --- | --- |
| CC/C=C\CC(O)/C=C/C=C\CCCCCCCCOCC(=O)O (stereo not drawn) [16-OH-β-oxa 21:3 (n-3), Z,E,Z-(13-Hydroxy-9, 11, 15-octadecatrienyloxy)acetic acid] | 40 µM | – | – | – | inhibition at 20 µM (TNFα production; Homo sapiens, PUFA at 20 μM, Table 5, read-out: % INHIBITION OF CYTOKINE PRODUCTION (PUFA AT 20 μM)): 68% |
| CCCCCC(O)/C=C/C=C\C/C=C\CCCCCOCC(=O)O (stereo not drawn) [16-OH-β-oxa 21:3 (n-6), Z,Z,E-(13-Hydroxy-6,9,11-octadecatienyloxy)acetic acid] | – | 50 µM | 71% | 71% | % INHIBITION RELATIVE TO 22:6 AT 16 μM (P. falciparum; [4]): 33% |
| CCCCCC=CCC=CCC=CCC=CCCCC(=O)O [20:4, 5,8,11,14-Eicosatetraenoic acid] | – | – | – | – | effect on TNFα-induced expression of E-selectin [2]: inhibit TNFα-induced expression of E-selection |
| CCC=CCC=CCC=CCC=CCC=CCCCC(=O)O [20:5, 5,8, 11, 14, 17-eicosapentaenoic] | – | – | – | – | effect on PHA-induced cytokine production [3]: inhibit in vitro production of macrophage and T cell-derived cytokines |
| CCC=CCC=CCC=CCC=CCC=CCC=CCCC(=O)O [22:6, 4,7, 10, 13, 16, 19-docosahexaenoic acid] | – | – | – | – | effect on PHA-induced cytokine production [3]: inhibit in vitro production of macrophage and T cell-derived cytokines |
| CCCCC/C=C\C/C=C\C/C=C\C/C=C\CCCCSC(CC(=O)O)C(=O)O (stereo not drawn) [α-carboxymethyl-β-thia 23.4 (n-6)] | – | 50 µM | – | – | – |
| CC/C=C\C/C=C\C/C=C\CCCCCCCCOCC(=O)O [β-oxa 21:3 (n-3), Z,Z,Z-(9, 12, 15-Octadecatrienyloxy) acetic acid] | 30 µM | – | – | 39% | inhibition relative to 22:6 (%) at 16 µM (P. falciparum; [4]): 45% |
| CCCCC/C=C\C/C=C\C/C=C\CCCCCOCC(=O)O [β-oxa 21:3 (n-6), Z,Z,Z-(6,9, 12-Octadecatrienyloxy) acetic acid] | < 30 µM | – | – | 38% | – |
| CC/C=C\C/C=C\C/C=C\C/C=C\CCCCCOCC(=O)O [β-oxa 21:4 (n-3), Z,Z,Z,Z-(6,9, 12, 15-Octadecatetraenyloxy) acetic acid] | 40 µM | – | – | – | inhibition relative to 22:6 (%) at 16 µM (P. falciparum; [4]): 85% |
| CCCCC/C=C\C/C=C\C/C=C\C/C=C\CCCCOCC(=O)O [β-oxa 23.4 (n-6), Z,Z,Z,Z(5,8, 11, 14-Eicosatetraenyloxy) acetic acid] | – | < 30 µM | 25% | 25% | – |
| CC/C=C\C/C=C\C/C=C\C/C=C\C/C=C\C/C=C\CCCOCC(=O)O [β-oxa 25.6 (n-3), Z,Z,Z,Z,Z,Z-(4,7, 10, 13, 16, 19-Docosahexaenyloxy) acetic acid] | < 60 µM | – | – | – | – |
| CC/C=C\C/C=C\C/C=C\CCCCCCCCSCC(=O)O [β-thia 21:3 (n-3), Z,Z,Z-(9,12,15-Octadecatrienylthio)acetic acid] | 30 to 35 µM | – | – | 17% | inhibition relative to 22:6 (%) at 16 µM (P. falciparum; [4]): 73% |
| CCCCC/C=C\C/C=C\C/C=C\C/C=C\CCCCSCC(=O)O [β-thia 23:4 (n-6), Z,Z,Z,Z-(5,8,11,14-Eicosatetraenylthio) acetic acid] | 15 to 30 µM | – | – | 35% | inhibition relative to 22:6 (%) at 16 µM (P. falciparum; [4]): 150% |
| CC/C=C\C/C=C\C/C=C\CCCCCCCCSCCC(=O)O [γ-thia 22.3 (n-3), Z,Z,Z-(9,12,15-Octadecatrienylthio)proponionic acid] | – | 45 µM | 25% | 25% | – |
| CCCCC/C=C\C/C=C\C/C=C\CCCCCSCCC(=O)O [γ-thia 22.3 (n-6), Z,Z,Z-(6,9,12-Octadecatrienylthio)propionic acid] | – | 45 µM | 41% | 41% | – |
| Z,Z,Z,Z,Z,Z-(9,12,15-Octadecatrienylthio)acetic acid [β-thia 25.6 (n-3)] | – | 25 µM | 90% | 90% | % INHIBITION RELATIVE TO 22:6 AT 16 μM (P. falciparum; [4]): 47% |
| Z,Z,Z,Z-(5,8,11,14-Eicosatetraenylthio) propionic acid [γ-thia 24.4 (n-6)] | – | 15 µM | 34% | 34% | % INHIBITION RELATIVE TO 22:6 AT 16 μM (P. falciparum; Table 2, second printing (stands where Table 3 is expected)): 91%; % INHIBITION RELATIVE TO 22:6 AT 16 μM (P. falciparum; Table 2, third printing (stands where Table 4 is expected)): 91%; % INHIBITION RELATIVE TO 22:6 AT 16 μM (P. falciparum; [4]): 91% |
| Z,Z,Z,Z-(6,9,12-Octadecatrienylthio)acetic acid [β-thia 21:3 (n-6)] | – | 30 to 50 µM | 17% | 17% | – |
